Test results as given in US9765092B2, “Tricyclic piperidine compounds” (ACTELION PHARMACEUTICALS LTD, priority 2013, dated 2017).

Each compound was assayed against human TPH1 (Homo sapiens (Human), UniProt P17752) (assay: Biochemical in vitro assay using fluorescence readout (TPH1 inhibition)). Conditions: full length human TPH1, 40 μM L-tryptophan, 15° C., 60 minutes, fluorescence at 540 nm; mean if determined several times.
Description: Biochemical In Vitro Assay Using Fluorescence Readout
To generate the enzyme, full length human TPH1 is cloned into the plasmid pET20b(+) (Novagen) and expressed in E. coli. The bacterial cells are ruptured by sonication on ice and the lysate is cleared by centrifugation. The resulting protein in the pellet is re-extracted and TPH1 is purified from the obtained lysate by affinity chromatography using a pterin cosubstrate analog immobilized to the resin of the column. The protein is further purified by size exclusion chromatography to remove protein aggregates. The activity of TPH1 is determined by using a fluorescence assay. The enzyme activity assay is carried out at 15° C. with atmosphere oxygen for the duration of 60 minutes in a volume of 64 μl. The reaction is carried out in a 0.1 M Tris-HCl buffer, adjusted to pH 7.6, containing 1 mM DTT, 0.2 mg/mL catalase, 100 μM (±)-6-methyl-5,6,7,8-tetrahydropterine dihydrochloride, 40 μM L-tryptophan, and 40-80 nM of TPH1. The reaction is started by bringing together L-tryptophan with all the other reaction substituents and stopped by quenching with perchloric acid (HClO4). The amount of 5-hydroxy-L-tryptophan produced during the enzymatic reaction is determined by fluorescence readout. Fluorescence, as determined at 540 nm when excited at 300 nm wavelength, increases proportionally to the 5-hydroxy-L-tryptophan formed. Compounds are prepared as 10 mM stock solution in DMSO, then diluted in 384-well plates using DMSO followed by a transfer of the dilutions into the assay plate. Fluorescence is measured for each well and the fluorescence at 540 nm wavelength is compared to the fluorescence of the vehicle in place of compound. Inhibitory activities of example compounds with respect to the TPH1 protein are determined by calculating the IC50 value (the concentration of compound needed to inhibit 50% of the enzyme activity). The calculated IC50 values may fluctuate depending on the daily biochemical assay performance. Fluctuations of this kind are known to those skilled in the art.

Sequence of human TPH1 (P17752 whole entry): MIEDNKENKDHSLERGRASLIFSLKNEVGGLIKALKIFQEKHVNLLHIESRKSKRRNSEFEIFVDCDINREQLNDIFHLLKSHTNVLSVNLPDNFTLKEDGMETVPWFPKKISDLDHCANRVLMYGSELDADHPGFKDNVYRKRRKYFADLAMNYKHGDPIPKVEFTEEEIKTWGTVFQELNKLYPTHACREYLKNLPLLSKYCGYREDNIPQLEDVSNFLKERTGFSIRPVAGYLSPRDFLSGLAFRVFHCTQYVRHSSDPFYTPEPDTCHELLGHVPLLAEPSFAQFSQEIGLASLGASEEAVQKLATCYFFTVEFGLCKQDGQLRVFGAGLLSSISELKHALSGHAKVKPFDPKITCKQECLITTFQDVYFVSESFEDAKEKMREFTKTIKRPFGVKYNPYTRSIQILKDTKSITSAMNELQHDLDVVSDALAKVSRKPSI

In order of rising IC50:
1. Cc1nn2c3c(nc2s1)CCN(C(=O)COc1ccc(N2CCOCC2)nc1Cl)C3c1cnc(N(C)C)s1 (stereo not shown) [Example 1.22.1, 2-((2-Chloro-6-morpholinopyridin-3-yl)oxy)-1-(5-(2-(dimethylamino)-thiazol-5-yl)-2-methyl-7,8-dihydro[1,3,4]thiadiazolo[2′,3′:2,3]imidazo[4,5-c]pyridin-6(5H)-yl)ethanone]  7 nM
2. Cc1nn2c3c(nc2s1)CCN(C(=O)COc1ccc(N2CCOCC2)nc1Cl)C3c1nc(C(=O)N(C)C)co1 (stereo not shown) [Example 1.43.1, 2-(6-(2-((2-Chloro-6-morpholinopyridin-3-yl)oxy)acetyl)-2-methyl-5,6,7,8-tetrahydro-[1,3,4]thiadiazolo[2′,3′:2,3]imidazo[4,5-c]pyridin-5-yl)-N,N-dimethyloxazole-4-carboxamide]  26 nM

Same assay, conditions: human TPH1, fluorescence readout

In order of rising IC50:
1. Cc1nn2c3c(nc2s1)CCN(C(=O)COc1ccc(N2CCOCC2)nc1Cl)C3c1nc(-c2ccccc2)no1 (stereo not shown) [Example 1.11.3, 2-((2-chloro-6-morpholinopyridin-3-yl)oxy)-1-(2-methyl-5-(3-phenyl-1,2,4-oxadiazol-5-yl)-7,8-dihydro-[1,3,4]thiadiazolo [2′,3′:2,3]imidazo[4,5-c]pyridin-6(5H)-yl)ethanone]  4 nM
2. CNC(=O)c1cc(F)c(C2c3c(nc4sc(C)nn34)CCN2C(=O)COc2ccc(C(=O)N(C)C)nc2Cl)s1 (stereo not shown) [Example 1.25.4, 6-chloro-5-(2-(5-(3-fluoro-5-(methylcarbamoyl)thiophen-2-yl)-2-methyl-7,8-dihydro-[1,3,4]thiadiazolo[2′,3′:2,3]imidazo[4,5-c]pyridin-6(5H)-yl)-2-oxoethoxy)-N,N-dimethylpicolinamide]  6 nM
3. Cc1nn2c3c(nc2s1)CCN(C(=O)COc1ccc(NS(C)(=O)=O)nc1Cl)C3c1sccc1F (stereo not shown) [Example 1.23.4, N-(6-chloro-5-(2-(5-(3-fluorothiophen-2-yl)-2-methyl-7,8-dihydro-[1,3,4]thiadiazolo[2′,3′:2,3]imidazo[4,5-c]pyridin-6(5H)-yl)-2-oxoethoxy)pyridin-2-yl)methanesulfonamide]  7 nM
4. CCc1nc(NS(C)(=O)=O)ccc1OCC(=O)N1CCc2nc3sc(CF)nn3c2C1c1ccc(Cl)cc1F (stereo not shown) [Example 7.1.2, N-(5-(2-(5-(4-chloro-2-fluorophenyl)-2-(fluoromethyl)-7,8-dihydro-[1,3,4]thiadiazolo[2′,3′:2,3]imidazo[4,5-c]pyridin-6(5H)-yl)-2-oxoethoxy)-6-ethylpyridin-2-yl)methanesulfonamide]  8 nM
5. Cc1cnc(C2c3c(nc4sc(C)nn34)CCN2C(=O)COc2ccc(NS(C)(=O)=O)nc2Cl)c(F)c1 (stereo not shown) [Example 1.31.8, N-(6-chloro-5-(2-(5-(3-fluoro-5-methylpyridin-2-yl)-2-methyl-7,8-dihydro-[1,3,4]thiadiazolo[2′,3′:2,3]imidazo[4,5-c]pyridin-6(5H)-yl)-2-oxoethoxy)pyridin-2-yl)methanesulfonamide]  9 nM
6. Cc1nn2c3c(nc2s1)CCN(C(=O)COc1ccc(-c2ncco2)nc1Cl)C3c1ccc(Cl)cc1F (stereo not shown) [Example 1.4.47, 1-(5-(4-chloro-2-fluorophenyl)-2-methyl-7,8-dihydro-[1,3,4]thiadiazolo[2′,3′:2,3]imidazo[4,5-c]pyridin-6(5H)-yl)-2-((2-chloro-6-(oxazol-2-yl)pyridin-3-yl)oxy)etha-none]  10 nM
7. CCc1nc(NS(C)(=O)=O)ccc1OCC(=O)N1CCc2nc3sc(CF)nn3c2C1c1ccc(C)cc1F (stereo not shown) [Example 7.3.2, N-(6-ethyl-5-(2-(5-(2-fluoro-4-methylphenyl)-2-(fluoromethyl)-7,8-dihydro-[1,3,4]thiadiazolo[2′,3′:2,3]imidazo[4,5-c]pyridin-6(5H)-yl)-2-oxoethoxy)pyridin-2-yl)methanesulfonamide]  12 nM
8. CCc1nn2c3c(nc2s1)CCN(C(=O)COc1ccc(NS(C)(=O)=O)nc1Cl)C3c1ccc(Cl)cc1F (stereo not shown) [Example 3.1.1, N-(6-chloro-5-(2-(5-(4-chloro-2-fluorophenyl)-2-ethyl-7,8-dihydro-[1,3,4]thiadiazolo[2′,3′:2,3]imidazo[4,5-c]-pyridin-6(5H)-yl)-2-oxoethoxy)pyridin-2-yl)methanesulfonamide]  13 nM
9. CCc1nc(C)ccc1OCC(=O)N1CCc2nc3sc(C)nn3c2C1c1ccc(Cl)cc1F (stereo not shown) [Example 1.4.2, 1-(5-(4-chloro-2-fluorophenyl)-2-methyl-7,8-dihydro-[1,3,4]thiadiazolo[2′,3′:2,3]imidazo[4,5-c]pyridin-6(5H)-yl)-2-((2-ethyl-6-methylpyridin-3-yl)oxy)ethanone]  13 nM
10. Cc1ccc(C2c3c(nc4sc(C)nn34)CCN2C(=O)COc2ccc(C(=O)N(C)C3CC3)nc2Cl)c(F)c1 (stereo not shown) [Example 1.53.3, 6-chloro-N-cyclopropyl-5-(2-(5-(2-fluoro-4-methyl-phenyl)-2-methyl-7,8-dihydro-[1,3,4]thiadiazolo-[2′,3′:2,3]imidazo[4,5-c]pyridin-6(5H)-yl)-2-oxoethoxy)-N-methylpicolinamide]  15 nM
11. Cc1nn2c3c(nc2s1)CCN(C(=O)COc1ccc(C(=O)N(C)C2CC2)nc1Cl)C3c1ccc(Cl)cc1F (stereo not shown) [Example 1.4.46, 6-chloro-5-(2-(5-(4-chloro-2-fluorophenyl)-2-methyl-7,8-dihydro-[1,3,4]thiadiazolo[2′,3′:2,3]imidazo[4,5-c]pyridin-6(5H)-yl)-2-oxoethoxy)-N-cyclopropyl-N-methylpicolinamide]  16 nM
12. Cc1nn2c3c(nc2s1)CCN(C(=O)COc1ccc(S(C)(=O)=O)nc1Cl)C3c1ccc(Cl)cc1F (stereo not shown) [Example 1.4.59, 1-(5-(4-chloro-2-fluorophenyl)-2-methyl-7,8-dihydro-[1,3,4]thiadiazolo[2′,3′:2,3]imidazo[4,5-c]pyridin-6(5H)-yl)-2-((2-chloro-6-(methylsulfonyl)pyridin-3-yl)oxy)ethan-1-one]  27 nM
13. CCc1nc(NS(C)(=O)=O)ccc1OCC(=O)N1CCc2nc3sc(C(F)(F)F)nn3c2C1c1sc(C)nc1C (stereo not shown) [Example 5.4.2, N-(5-(2-(5-(2,4-dimethylthiazol-5-yl)-2-(trifluoromethyl)-7,8-dihydro-[1,3,4]thiadiazolo[2′,3′:2,3]imidazo[4,5-c]pyridin-6(5H)-yl)-2-oxoethoxy)-6-ethylpyridin-2-yl)methanesulfonamide]  27 nM
14. Cc1cnc(C2c3c(nc4sc(C)nn34)CCN2C(=O)COc2ccc(C#N)nc2Cl)c(F)c1 (stereo not shown) [Example 1.31.3, 6-chloro-5-(2-(5-(3-fluoro-5-methylpyridin-2-yl)-2-methyl-7,8-dihydro-[1,3,4]thiadiazolo[2′,3′:2,3]imidazo[4,5-c]pyridin-6(5H)-yl)-2-oxoethoxy)picolinonitrile]  36 nM
15. Cn1nc(OCC(=O)N2CCc3nc4sccn4c3C2c2nc3ccccc3s2)c(Cl)c1C(F)(F)F (stereo not shown) [Example 6.12.7, 1-(5-(benzo[d]thiazol-2-yl)-7,8-dihydrothiazolo-[2′,3′:2,3]imidazo[4,5-c]pyridin-6(5H)-yl)-2-((4-chloro-1-methyl-5-(trifluoromethyl)-1H-pyrazol-3-yl)-oxy)ethanone]  62 nM
16. CCc1ncccc1OCC(=O)N1CCc2nc3sccn3c2C1c1cnn(-c2ccccc2)c1 (stereo not shown) [Example 6.13.9, 2-((2-ethylpyridin-3-yl)oxy)-1-(5-(1-phenyl-1H-pyrazol-4-yl)-7,8-dihydrothiazolo[2′,3′:2,3]imidazo[4,5-c]pyridin-6(5H)-yl)ethanone]  123 nM
17. CCc1ncccc1OCC(=O)N1CCc2nc3sc(C)nn3c2C1c1cc(CN(C)C)cs1 (stereo not shown) [Example 1.8.2, 1-(5-(4-((dimethylamino)methyl)thiophen-2-yl)-2-methyl-7,8-dihydro-[1,3,4]thiadiazolo[2′,3′:2,3]imidazo[4,5-c]pyridin-6(5H)-yl)-2-((2-ethylpyridin-3-yl)oxy)ethanone]  140 nM
18. O=C(COc1ccc(CN2CCOCC2)nc1Cl)N1CCc2nc3sccn3c2C1c1cccnc1F (stereo not shown) [Example 6.2.7, ((2-chloro-6-(morpholinomethyl)pyridin-3-yl)oxy)-1-(5-(2-fluoropyridin-3-yl)-7,8-dihydrothiazolo[2′,3′:2,3]-imidazo[4,5-c]pyridin-6(5H)-yl)ethanone]  235 nM
19. Cc1nn2c3c(nc2s1)CCN(C(=O)COc1ccc(N(C)C)nc1Cl)C3c1cnc(N2CCOCC2)s1 (stereo not shown) [Example 1.7.4, 2-((2-chloro-6-(dimethylamino)pyridin-3-yl)oxy)-1-(2-methyl-5-(2-morpholinothiazol-5-yl)-7,8-dihydro-[1,3,4]thiadiazolo[2′,3′:2,3]imidazo[4,5-c]pyridin-6(5H)-yl)ethanone]  408 nM
20. Cn1nc(OCC(=O)N2CCc3nc4sccn4c3C2c2cccnc2F)c(C(F)(F)F)c1Cl (stereo not shown) [Example 6.2.6, 2-((5-chloro-1-methyl-4-(trifluoromethyl)-1H-pyrazol-3-yl)oxy)-1-(5-(2-fluoropyridin-3-yl)-7,8-dihydrothiazolo[2′,3′:2,3]imidazo[4,5-c]pyridin-6(5H)-yl)ethanone]  419 nM
